In paper PMC9161259 (ACS Omega, 2022):

Experiments:
Cytotoxic assay = settings: human, MRC-5 normal embryonic lung cell line
[1] = tested on: A549 lung carcinoma cell line; assay: Cytotoxic assay; settings: Homo sapiens, A549, 48 h, read-out: Cytotoxic activity IC50, A549
[2] = tested on: MDA-MB-231 hormone-independent breast cancer cell line; assay: Cytotoxic assay; settings: Homo sapiens, MDA-MB-231, 48 h, read-out: Cytotoxic activity IC50, MDA-MB-231
wild-type EGFR = wild-type EGFR (Homo sapiens, UniProt P00533); assay: ADP-Glo kinase assay, wild-type EGFR; format: biochemical
wild-type EGFR, sequence (P00533 25-1210): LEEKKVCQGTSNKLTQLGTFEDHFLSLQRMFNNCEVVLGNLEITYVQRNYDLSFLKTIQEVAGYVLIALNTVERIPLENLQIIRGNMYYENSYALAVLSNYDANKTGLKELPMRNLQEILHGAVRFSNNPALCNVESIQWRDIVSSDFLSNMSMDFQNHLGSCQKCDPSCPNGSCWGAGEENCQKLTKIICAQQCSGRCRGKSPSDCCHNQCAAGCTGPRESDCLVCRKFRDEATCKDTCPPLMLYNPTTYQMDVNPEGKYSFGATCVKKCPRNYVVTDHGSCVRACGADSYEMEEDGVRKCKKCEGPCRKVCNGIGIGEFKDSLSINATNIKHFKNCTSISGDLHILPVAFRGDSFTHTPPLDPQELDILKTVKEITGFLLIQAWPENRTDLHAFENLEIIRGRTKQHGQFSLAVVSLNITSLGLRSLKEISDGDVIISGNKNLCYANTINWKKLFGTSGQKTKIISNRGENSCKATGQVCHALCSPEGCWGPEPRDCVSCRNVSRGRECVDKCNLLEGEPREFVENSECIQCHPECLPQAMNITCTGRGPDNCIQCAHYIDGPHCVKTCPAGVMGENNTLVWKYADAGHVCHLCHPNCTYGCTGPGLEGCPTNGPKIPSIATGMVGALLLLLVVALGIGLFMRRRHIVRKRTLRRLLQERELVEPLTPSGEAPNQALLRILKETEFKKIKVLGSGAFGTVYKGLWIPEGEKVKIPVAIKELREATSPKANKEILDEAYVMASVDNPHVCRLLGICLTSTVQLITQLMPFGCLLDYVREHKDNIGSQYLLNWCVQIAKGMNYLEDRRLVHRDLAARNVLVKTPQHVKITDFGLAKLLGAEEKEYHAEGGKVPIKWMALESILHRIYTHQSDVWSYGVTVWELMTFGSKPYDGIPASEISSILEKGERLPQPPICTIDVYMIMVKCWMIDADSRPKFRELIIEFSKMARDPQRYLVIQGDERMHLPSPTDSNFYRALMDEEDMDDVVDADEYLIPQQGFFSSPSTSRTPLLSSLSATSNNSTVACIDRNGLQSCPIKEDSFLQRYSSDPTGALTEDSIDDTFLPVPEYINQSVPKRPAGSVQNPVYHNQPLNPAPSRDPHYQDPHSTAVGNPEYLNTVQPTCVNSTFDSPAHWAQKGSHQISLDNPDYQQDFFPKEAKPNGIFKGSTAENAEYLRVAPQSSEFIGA

L858R/T790M mutant EGFR = L858R/T790M mutant EGFR (Homo sapiens, UniProt P00533, L858R/T790M); assay: ADP-Glo kinase assay, L858R/T790M mutant EGFR; format: biochemical
L858R/T790M mutant EGFR, sequence (P00533 25-1210 T790M/L858R): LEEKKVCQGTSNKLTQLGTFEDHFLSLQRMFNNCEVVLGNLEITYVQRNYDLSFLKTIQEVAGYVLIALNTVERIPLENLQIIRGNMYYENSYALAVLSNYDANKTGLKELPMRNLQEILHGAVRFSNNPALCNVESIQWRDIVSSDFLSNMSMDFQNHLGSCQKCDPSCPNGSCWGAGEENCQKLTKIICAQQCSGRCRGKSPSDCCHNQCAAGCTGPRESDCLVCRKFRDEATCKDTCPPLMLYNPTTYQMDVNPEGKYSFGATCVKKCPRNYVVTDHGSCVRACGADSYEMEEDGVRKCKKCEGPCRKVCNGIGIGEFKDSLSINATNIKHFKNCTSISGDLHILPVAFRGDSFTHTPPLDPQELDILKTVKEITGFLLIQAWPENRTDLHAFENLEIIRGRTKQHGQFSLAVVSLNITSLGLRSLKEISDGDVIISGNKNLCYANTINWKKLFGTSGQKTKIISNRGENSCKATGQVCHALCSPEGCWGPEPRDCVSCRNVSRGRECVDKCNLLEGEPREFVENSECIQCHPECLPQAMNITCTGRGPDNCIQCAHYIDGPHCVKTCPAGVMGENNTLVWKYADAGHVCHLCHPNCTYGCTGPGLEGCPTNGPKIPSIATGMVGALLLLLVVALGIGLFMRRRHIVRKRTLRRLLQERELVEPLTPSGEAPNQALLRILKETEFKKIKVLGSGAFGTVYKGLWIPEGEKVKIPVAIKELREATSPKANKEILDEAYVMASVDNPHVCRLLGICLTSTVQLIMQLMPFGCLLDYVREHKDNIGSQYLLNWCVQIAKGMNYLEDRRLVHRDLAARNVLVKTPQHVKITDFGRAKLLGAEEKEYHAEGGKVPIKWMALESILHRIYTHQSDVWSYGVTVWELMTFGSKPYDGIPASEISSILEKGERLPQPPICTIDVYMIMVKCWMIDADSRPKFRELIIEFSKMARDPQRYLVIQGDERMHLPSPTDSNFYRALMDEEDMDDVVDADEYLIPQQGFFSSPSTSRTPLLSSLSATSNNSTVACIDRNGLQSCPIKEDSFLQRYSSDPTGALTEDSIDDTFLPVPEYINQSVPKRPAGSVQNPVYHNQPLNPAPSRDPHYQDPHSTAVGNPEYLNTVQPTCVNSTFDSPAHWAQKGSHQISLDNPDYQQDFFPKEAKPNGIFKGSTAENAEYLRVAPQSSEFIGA

[3] = tested on: T47D hormone-dependent breast cancer cell line; assay: Cytotoxic assay; settings: Homo sapiens, 48 h, read-out: Cytotoxic activity IC50, T47D
[4] = tested on: MOLT-3 lymphoblastic leukemia cell line; assay: Cytotoxic assay; settings: for IC50: Homo sapiens, MOLT-3, 48 h, read-out: Cytotoxic activity IC50, MOLT-3
[5] = tested on: HepG2 hepatocellular carcinoma cell line; assay: Cytotoxic assay; settings: for IC50: Homo sapiens, HepG2, 48 h, read-out: Cytotoxic activity IC50, HepG2
[6] = tested on: HuCCA-1 cholangiocarcinoma cancer cell line; assay: Cytotoxic assay; settings: Homo sapiens, HuCC-A1, 48 h, read-out: Cytotoxic activity IC50, HuCCA-1

IC50 (wild-type EGFR)	IC50 (L858R/T790M mutant EGFR)	EGFR inhibitory activity, times higher than that of erlotinib (wild-type EGFR; ratio of IC50 values, wild-type EGFR)	SMILES	IC50 at 48 h (Cytotoxic assay)	IC50 [1]	IC50 [2]	IC50 [3]	IC50 [4]	IC50 [5]	IC50 [6]	Cytotoxic activity IC50, MOLT-3 [4]	Cytotoxic activity IC50, HepG2 [5]
0.0186 ± 0.00141 µM	> 0.1 µM	–	O=C1C(Cl)=C(Nc2cccc([N+](=O)[O-])c2)C(=O)c2ccccc21 [compound 10, 2-Chloro-3-((3-nitrophenyl)amino)naphthalene-1,4-dione]	74.53 ± 0.71 µM	114.1 ± 0.71 µM	16.2 ± 0.57 µM	19.2 ± 1.77 µM	2.98 ± 0.25 µM	> 50 µg/mL	42.1 ± 0.74 µM	–	–
–	–	–	O=C1C(Cl)=C(Nc2ccc(C(F)(F)F)cc2)C(=O)c2ccccc21 [compound 7, 2-Chloro-3-((4-(trifluoromethyl)phenyl)amino)naphthalene-1,4-dione]	> 50 µg/mL	> 50 µg/mL	70.8 ± 2.19 µM	63.4 ± 2.12 µM	7.68 ± 0.84 µM	> 50 µg/mL	> 50 µg/mL	–	–
–	–	–	O=C1C(Br)=C(Nc2ccccc2)C(=O)c2ccccc21 [compound 13, 2-Bromo-3-(phenylamino)naphthalene-1,4-dione]	15.3 ± 2.67 µM	27.91 ± 0.05 µM	9.48 ± 2.17 µM	10.1 ± 0.27 µM	2.74 ± 0.02 µM	20.1 ± 0.54 µM	15.6 ± 0.54 µM	–	–
–	–	–	COc1ccc(NC2=C(Cl)C(=O)c3ccccc3C2=O)cc1 [compound 11, 2-Chloro-3-((4-methoxyphenyl)amino)naphthalene-1,4-dione]	> 50 µg/mL	> 50 µg/mL	105 ± 2.72 µM	> 50 µg/mL	17.6 ± 3.3 µM	> 50 µg/mL	> 50 µg/mL	–	–
–	–	–	COc1cccc2c1C(=O)c1c(O)c3c(c(O)c1C2=O)C[C@@](O)(C(=O)CO)C[C@@H]3O[C@H]1C[C@H](N)[C@H](O)[C@H](C)O1 [doxorubicin, reference compound]	2.67 ± 0.2 µM	0.34 ± 0.01 µM	2.1 ± 0.06 µM	1.04 ± 0.01 µM	0.02 µM	0.5 ± 0.04 µM	1.17 ± 0.05 µM	–	–
–	–	–	O=C1C(Cl)=C(Nc2ccc(Br)cc2)C(=O)c2ccccc21 [compound 5, 2-((4-Bromophenyl)amino)-3-chloronaphthalene-1,4-dione]	> 50 µg/mL	> 50 µg/mL	> 50 µg/mL	> 50 µg/mL	> 50 µg/mL	> 50 µg/mL	> 50 µg/mL	inactive	inactive
–	–	–	O=C1C(Cl)=C(Nc2ccc(I)cc2)C(=O)c2ccccc21 [compound 6, 2-Chloro-3-((4-iodophenyl)amino)naphthalene-1,4-dione]	> 50 µg/mL	> 50 µg/mL	> 50 µg/mL	52.5 ± 0.85 µM	42.6 ± 8.11 µM	> 50 µg/mL	> 50 µg/mL	–	–
–	–	–	O=C1C=C(Nc2ccccc2)C(=O)c2ccccc21 [compound 16, 2-(Phenylamino)naphthalene-1,4-dione]	> 50 µg/mL	40.8 ± 1.51 µM	30.4 ± 0.86 µM	> 50 µg/mL	> 50 µg/mL	25.1 ± 3.31 µM	96.2 ± 2.84 µM	–	–
0.0114 ± 0.00035 µM	> 0.1 µM	–	O=C1C(Cl)=C(Nc2ccc([N+](=O)[O-])cc2)C(=O)c2ccccc21 [compound 8, 2-Chloro-3-((4-nitrophenyl)amino)naphthalene-1,4-dione]	74.9 ± 7.21 µM	70 ± 2.04 µM	11.1 ± 2.84 µM	11.7 ± 0.19 µM	1.98 ± 0.28 µM	86.1 ± 1.61 µM	16.3 ± 0.98 µM	–	–
0.00396 ± 0.00066 µM	> 0.1 µM	4 fold	Cc1ccc(NC2=C(Cl)C(=O)c3ccccc3C2=O)cc1 [compound 3, 2-Chloro-3-(p-tolylamino)naphthalene-1,4-dione]	92.43 ± 0.02 µM	> 50 µg/mL	10.7 ± 1.89 µM	39.5 ± 0.3 µM	4.3 ± 0.46 µM	127.4 ± 0.65 µM	42.2 ± 1.96 µM	–	–
–	–	–	COc1ccc(NC2=CC(=O)c3ccccc3C2=O)cc1 [compound 18, 2-((4-Methoxyphenyl)amino)naphthalene-1,4-dione]	> 50 µg/mL	> 50 µg/mL	> 50 µg/mL	> 50 µg/mL	> 50 µg/mL	> 50 µg/mL	> 50 µg/mL	–	–
–	–	–	O=C1C(Br)=C(Nc2ccc(Br)cc2)C(=O)c2ccccc21 [compound 15, 2-Bromo-3-((4-bromophenyl)amino)naphthalene-1,4-dione]	> 50 µg/mL	> 50 µg/mL	65.5 ± 3.01 µM	> 50 µg/mL	7.17 ± 1.12 µM	4.94 ± 0.02 µM	70.2 ± 1.12 µM	–	–
–	–	–	O=C1C(Cl)=C(Nc2ccc(F)cc2)C(=O)c2ccccc21 [compound 4, 2-Chloro-3-((4-fluorophenyl)amino)naphthalene-1,4-dione]	20.2 ± 1.4 µM	148 ± 2.55 µM	17 ± 0.2 µM	17.9 ± 0.76 µM	7.45 ± 1.06 µM	131.9 ± 1.13 µM	58.7 ± 0.64 µM	–	–
–	–	–	COc1cc([C@@H]2c3cc4c(cc3[C@@H](O[C@@H]3O[C@@H]5CO[C@@H](C)O[C@H]5[C@H](O)[C@H]3O)[C@H]3COC(=O)[C@H]23)OCO4)cc(OC)c1O [etoposide, reference compound]	–	–	–	–	0.05 µM	50 ± 3.7 µM	–	–	–
–	–	–	O=C1C(Br)=C(Nc2ccc(F)cc2)C(=O)c2ccccc21 [compound 14, 2-Bromo-3-((4-fluorophenyl)amino)naphthalene-1,4-dione]	12.5 ± 0.74 µM	50 ± 3 µM	7.54 ± 2.07 µM	28.5 ± 1 µM	4.65 ± 0.41 µM	19.1 ± 0.82 µM	16.2 ± 1.65 µM	–	–
–	–	–	O=C1C(Cl)=C(Nc2ccc(O)cc2)C(=O)c2ccccc21 [compound 12, 2-Chloro-3-((4-hydroxyphenyl)amino)naphthalene-1,4-dione]	11.4 ± 3.28 µM	30.73 ± 0.18 µM	4.77 ± 0.07 µM	14.7 ± 0.43 µM	4.67 ± 0.24 µM	22.6 ± 0.87 µM	8.21 ± 0.33 µM	–	–
–	–	–	N#Cc1ccc(NC2=C(Cl)C(=O)c3ccccc3C2=O)cc1 [compound 9, 4-((3-Chloro-1,4-dioxo-1,4-dihydronaphthalen-2-yl)amino)benzonitrile]	18.4 ± 1.65 µM	72.72 ± 0.21 µM	43.08 ± 0.19 µM	11.27 ± 0.06 µM	1.75 ± 0.2 µM	73.4 ± 2.26 µM	22.67 ± 0.09 µM	–	–
–	–	–	O=C1C=C(Nc2ccc(F)cc2)C(=O)c2ccccc21 [compound 17, 2-((4-Fluorophenyl)amino)naphthalene-1,4-dione]	21.6 ± 2.45 µM	> 50 µg/mL	21.8 ± 2.95 µM	88.7 ± 1.64 µM	> 50 µg/mL	23.4 ± 3.45 µM	9.65 ± 1.99 µM	–	–
